Data taken from patent publication US5656613A, “Treatment of hyperandrogenic conditions” (Merck & Co., Inc., priority 1995, dated 1997).
Like-named read-outs stand apart in the source and are kept apart here.

Legend:
[1] = biological target: T1, human prostate (type 2) 5α-reductase (Homo sapiens, UniProt P31213); conditions: read-out: Km for testosterone; native human prostate enzyme, neutral pH; Faller et al.; cited from earlier work
T1 sequence (P31213 1-254): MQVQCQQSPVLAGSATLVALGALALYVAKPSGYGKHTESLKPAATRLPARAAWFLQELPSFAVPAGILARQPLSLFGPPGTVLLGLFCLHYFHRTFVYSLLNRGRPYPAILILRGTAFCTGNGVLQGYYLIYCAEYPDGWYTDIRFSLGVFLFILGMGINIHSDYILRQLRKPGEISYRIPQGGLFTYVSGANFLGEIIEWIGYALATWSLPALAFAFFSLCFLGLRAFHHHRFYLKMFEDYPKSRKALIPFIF

[2] = biological target: T1, human prostate (type 2) 5α-reductase; assay: Steady-state enzyme kinetics of substrates; format: biochemical; design: native prostate enzyme considered interchangeable; conditions: pH 7.2, 37° C.
From the text: The model applies in many aspects to both slow-binding, reversible inhibitors and to mechanism-based, irreversible ones.
When tissue extracts were the source of enzyme, the quenched reactions were clarified by centrifugation at 10,000×g before analysis.

[3] = biological target: T2, human type 2 5α-reductase (Homo sapiens, UniProt P31213); assay: Structural requirements / inhibition constants and IC50 on type 2 enzyme (Examples 9 and 11); format: biochemical
T2 construct: host or cells: native human prostate tissue or recombinant from a baculovirus expression system; considered interchangeable
T2 sequence (P31213 1-254): T1 sequence (P31213 1-254)
Description: (§1) The human isozymes were employed exclusively in this research. The native isozymes were from scalp (type 1 ) or prostate (type 2) tissues, and the recombinant forms were produced by a baculovirus expression system. Except where specified, all data refer to the prostate (type 2) isozyme, the primary target of finasteride. All of the experiments described in this application were also conducted with the recombinant type 1 isozyme, either in parallel or for confirmation.
Permutations of three structural changes to finasteride were tested for their ability to abolish time-dependent inhibition. All compounds were tested at their apparent IC50 values at pH 5.5 and 37° C.
(§2) Following the procedures of Example 9, the compounds below were each tested with both human type 1 and type 2 enzyme.

[4] = biological target: T3, human 5α-reductase (prostate, type 2) (Homo sapiens, UniProt P31213); assay: Inhibition of 5α-reductase by free NADP-dihydrofinasteride adduct; format: biochemical
T3 construct: host or cells: native human prostate tissue or recombinant from a baculovirus expression system; considered interchangeable
T3 sequence (P31213 1-254): T1 sequence (P31213 1-254)
Description: as §1

[5] = Nonenzymatic decomposition / stability of NADP-dihydrofinasteride adduct; format: physicochemical; conditions: for degraded at 0.235 µM: 0.1m mops, pH 7.2, 235 nM, 0.1M MOPS; for ability to dissociate to [^14 C]-dihydrofinasteride after oxidation: phenazine methosulfate / pyrazine methosulfate
Description: The integrity of the NADP-[^14 C]dihydrofinasteride adduct, defined as its ability to form [^14 C]-dihydrofinasteride, was measured by high pressure liquid chromatography on a reverse phase column (VYDAC, 4.6×250 mm, 300 Å, 5 micron, flow rate=1 mL/min) in 60% aqueous methanol. The retention time was about 14 minutes, and was consistently 1.4 min longer than that for [^3 H]finasteride, as determined by co-injection. […] The halflife for decomposition was ~1 min in 0.1M ammonium formate buffer at pH 4.00 and 100° C., and these conditions gave 88% conversion to [^14 C]-dihydrofinasteride at infinite time.
All lines of evidence point to the covalent adduct of inhibitor and cofactor. (1) The absorbance and fluorescence spectra resemble those of NAD(P)H, the NAD-pyruvate complex and analogs and the NAD-cyanide addition complex described by Kaplan, et al. (2) On heating, the compound decomposes to (^14 C)dihydrofinasteride with a rate constant of ~6×10^-4 s^-1 and halflife of 20 min in water at neutral pH and 100° C., explaining the recovery of dihydrofinasteride in the heat-denaturation experiments above. […] (4) Securing the identification, the most prominent parent ion peak in its mass spectrum had the correct charge/mass ratio of 1116 Da.
The rate constant for nonenzymatic breakdown of the covalent intermediate to NADP^+ and dihydrofinasteride was determined under the same conditions used for the enzyme kinetic constants. See Example 5. A constant kx =7.21+0.27×10^-7 s^-1 and a halflife of 11.1±0.4 days at pH 7.2 and 37° C. was calculated. The formation of [^14 C]dihydrofinasteride went to 75% completion at infinite lime, presumably due to competing side reactions like oxidation of the dihydropyridine ring.
The decay of the isolated complex to NADP+ and [^14 C]dihydrofinasteride was measured as a function of time to determine the rate constant for nonenzymatic decomposition of NADP-dihydrofinasteride. The complex (235 nM) was incubated in 0.1M MOPS, 0.1% BSA, and 1 mM EDTA at pH 7.2 and 37° C., and fractions were taken each day and stored at -75° C. These were later analyzed by reverse phase chromatography as described for the assay using a neutral isocratic system of 60% methanol, where [^14 C]dihydrofinasteride has a retention time of 14 min. The y-axis is expressed relative to the total ^14 C-label in each sample injected (2,410 dpm). The reaction went to 0.753 completion at infinite time, as determined by heating at 100° C. The results, as determined by nonlinear regression are consistent with first-order decay with a rate constant kx =7.21+0.27×10^-7 s^-1 and 0.754±0.015 conversion at infinite time as determined by nonlinear regression.

[6] = Partition of released polar component into chloroform; format: physicochemical; conditions: released by denaturation in guanidine hydrochloride
From the text: Eventually, it became evident that dihydrofinasteride is not the immediate product released upon denaturation of the enzyme-inhibitor complex. Several lines of evidence pointed to release of a much more polar [^3 H]-labeled component. Among these, it was disconcerting that recoveries of [^3 H]dihydrofinasteride on the reverse phase column were often only 35-45% of the radioactivity released from heat-denatured enzyme-inhibitor complex, the remainder never eluting (under acidic conditions). […] It is now clear that this polar intermediate accounts for most, or all, of the radioactivity released by any denaturation method, chromatographs anomalously, and is inadvertently converted to [^3 H]dihydrofinasteride during heat-denaturation.

[7] = biological target: T4, human type 1 5α-reductase (Homo sapiens, UniProt P18405); assay: Inhibition of human type 1 enzyme (Example 11); format: biochemical; conditions: for IC50 / kon: Table 2, human type 1
T4 construct: made in house
T4 sequence (P18405 1-259): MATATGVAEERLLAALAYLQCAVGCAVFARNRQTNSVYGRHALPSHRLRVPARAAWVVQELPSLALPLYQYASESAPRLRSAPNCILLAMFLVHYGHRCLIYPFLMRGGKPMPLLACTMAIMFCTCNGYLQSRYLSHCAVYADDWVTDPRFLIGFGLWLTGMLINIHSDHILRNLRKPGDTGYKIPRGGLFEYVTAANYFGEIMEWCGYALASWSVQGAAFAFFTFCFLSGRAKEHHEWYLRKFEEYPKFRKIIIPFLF
Description: Permutations of three structural changes to finasteride were tested for their ability to abolish time-dependent inhibition. All compounds were tested at their apparent IC50 values at pH 5.5 and 37° C. Those displaying slow-binding inhibition are identified by kon values, which were determined as described for finasteride above. Those for which no time-dependent inhibition was found are identified by apparent Ki values.
as §2

[8] = comparison with NADP-dihydrofinasteride adduct; cited from earlier work
[9] = Table 1, pH 5.5, 37° C., no time-dependent inhibition, read-out: Ki (apparent)
[10] = Table 3, human type 2, read-out: kon

C[C@]12CC[C@H]3[C@@H](CCC4=CC(=O)CC[C@@]43C)[C@@H]1CC[C@@H]2O [testosterone]
Km [1]: 0.02 ± 0.003 µM
kcat/Km [2]: 2.99±0.32×10^6 M^-1 s^-1
turnover number kcat ([2]; by titration with finasteride): 0.075 ± 0.006 s⁻¹

CC(C)(C)NC(=O)[C@H]1CC[C@H]2[C@@H]3CC[C@H]4NC(=O)CC[C@]4(C)[C@H]3CC[C@]12C [Compound 2]
Ki [3, 9]: 8 nM

C[C@]12C=CC(=O)N[C@@H]1CC[C@@H]1[C@@H]2CC[C@]2(C)[C@@H](C(=O)NC3C4CC5CC(C4)CC3C5)CC[C@@H]12 (some centres unmarked) [Compound 9]
kon ([3]; Table 1, pH 5.5, 37° C.): 47.00 10^5 × M^-1 s^-1

COC(=O)[C@H]1CC[C@H]2[C@@H]3CC[C@H]4NC(=O)C=C[C@]4(C)[C@H]3CC[C@]12C [Compound 3]
kon ([3]; Table 1, pH 5.5, 37° C.): 0.85 10^5 × M^-1 s^-1

CN1C(=O)CC[C@]2(C)[C@H]3CC[C@]4(C)[C@@H](C(=O)C5CCCCC5)CC[C@H]4[C@@H]3CC[C@@H]12 [Compound 8]
Ki [3, 9]: 0.2 nM

CC(C)(C)NC(=O)[C@H]1CC[C@H]2[C@@H]3CC[C@H]4NC(=O)C(C5C=CN([C@@H]6O[C@H](COP(=O)(O)OP(=O)(O)OC[C@H]7O[C@@H](n8cnc9c(N)ncnc98)[C@H](OP(=O)(O)O)[C@@H]7O)[C@@H](O)[C@H]6O)C=C5C(N)=O)C[C@]4(C)[C@H]3CC[C@]12C (some centres unmarked) [NADP-dihydrofinasteride adduct]
rate constant for release of adduct from competent enzyme ([4]; bounded by observed decay of enzyme-[^3 H]finasteride complex): ≤ 3e-07 s⁻¹
rate constant for binding of adduct to free enzyme, k-3 ([4]; extrapolated to zero pyridine-nucleotide cofactor): ~ 1×10^6 M^-1 s^-1
mode of inhibition ([4]; versus NADPH and testosterone): competitive with the first substrate (NADPH) and independent of saturating concentrations of the second (testosterone)
half-life ([5]; 0.1M ammonium formate, pH 4.00, 100° C., read-out: halflife for decomposition): ~1 min
degraded ([5]; 0.1m ammonium formate, pH 4, 0.1M ammonium formate, pH 4.00, 100° C., read-out: conversion to [^14 C]-dihydrofinasteride at infinite time): 88%
degraded at 0.235 µM ([5]; pH 7.2, 37° C., read-out: conversion at infinite time, by nonlinear regression): 75.4 ± 1.5%
degraded at 0.235 µM ([5]; pH 7.2, read-out: completion at infinite time, by heating at 100° C.): 75.3%
storage stability ([5]; ammonium bicarbonate buffer, pH 9, -75° C.): stable for months
stability relative to NAD-pyruvate counterpart ([5]; oxidation and dissociation): more stable to oxidation, and certainly to dissociation,than its NAD-pyruvate counterpart
rate constant kx for nonenzymatic breakdown to NADP^+ and dihydrofinasteride ([5]; pH 7.2, 37° C.): 7.21+0.27×10^-7 s^-1
half-life ([5]; pH 7.2, 37° C., read-out: halflife of nonenzymatic breakdown (converted)): 16000 min
degraded ([5]; pH 7.2, pH 7.2, 37° C., read-out: completion of formation of [^14 C]dihydrofinasteride at infinite time): 75%
ability to dissociate to [^14 C]-dihydrofinasteride after oxidation ([5]; listed as NADP-[^14 C]dihydrofinasteride adduct): completely abolished the ability to dissociate to [^14 C]-dihydrofinasteride
ability to dissociate to [^14 C]-dihydrofinasteride after oxidation ([5]; listed as covalent adduct of inhibitor and cofactor): abolished by treatment with pyrazine methosulfate
rate constant of decomposition ([5]; water, neutral pH, 100° C.): ~ 6×10^-4 s^-1
half-life ([5]; water, neutral pH, 100° C., read-out: halflife of decomposition): 20 min
radioactivity partitioning into chloroform [6]: < 5%

CN1C(=O)CC[C@]2(C)[C@H]3CC[C@]4(C)[C@@H](C(=O)NC5C6CC7CC(C6)CC5C7)CC[C@H]4[C@@H]3CC[C@@H]12 (some centres unmarked) [Compound 10]
Ki [3, 9]: 0.5 nM

C[C@]12C=CC(=O)N[C@@H]1CC[C@@H]1[C@@H]2CC[C@]2(C)C(CC#N)CC[C@@H]12 (some centres unmarked) [Compound 13]
IC50 ([3]; Table 3, human type 2): 8400 nM
kon [3, 10]: 140 M⁻¹ s⁻¹
selectivity for human 5α-reductase type 1 [7]: 1,200
IC50 [7]: 3 nM
kon [7]: 180000 M⁻¹ s⁻¹

CN1C(=O)C=C[C@]2(C)[C@H]3CC[C@]4(C)[C@@H](C(=O)C5CCCCC5)CC[C@H]4[C@@H]3CC[C@@H]12 [Compound 7]
Ki [3, 9]: 13 nM

NC(=O)C1=CN([C@@H]2O[C@H](COP(=O)(O)OP(=O)(O)OC[C@H]3O[C@@H](n4cnc5c(N)ncnc54)[C@H](O)[C@@H]3O)[C@@H](O)[C@H]2O)C=CC1CC(=O)C(=O)O (some centres unmarked) [NAD-pyruvate adduct]
stability [8]: so unstable as to preclude normal kinetic measurements

C[C@]12C=CC(=O)N[C@@H]1CC[C@@H]1[C@@H]2CC[C@]2(C)C(CCC(=O)Nc3ccncc3)CC[C@@H]12 (some centres unmarked) [Compound 12]
IC50 ([3]; Table 3, human type 2): 3500 nM
kon [3, 10]: 140 M⁻¹ s⁻¹
selectivity for human 5α-reductase type 1 [7]: 1,200
IC50 [7]: 2.8 nM
kon [7]: 170000 M⁻¹ s⁻¹

COC(C)C1CC[C@H]2[C@@H]3CC[C@H]4NC(=O)C=C[C@]4(C)[C@H]3CC[C@]12C (some centres unmarked) [Compound 14]
IC50 ([3]; Table 3, human type 2): 5400 nM
kon [3, 10]: 130 M⁻¹ s⁻¹
selectivity for human 5α-reductase type 1 [7]: 1,600
IC50 [7]: 1.8 nM
kon [7]: 200000 M⁻¹ s⁻¹

CC1C[C@H]2NC(=O)C=C[C@]2(C)[C@H]2CC[C@]3(C)CC(Oc4ccc(Cl)cc4)C[C@H]3[C@H]12 (some centres unmarked) [Compound 11]
IC50 ([3]; Table 3, human type 2): > 10000 nM
kon [3, 10]: 50 M⁻¹ s⁻¹
selectivity for human 5α-reductase type 1 [7]: 3,300
IC50 [7]: 8 nM
kon [7]: 170000 M⁻¹ s⁻¹

C[C@]12C=CC(=O)N[C@@H]1CC[C@@H]1[C@@H]2CC[C@]2(C)[C@@H](C(=O)C3CCCCC3)CC[C@@H]12 [Compound 5]
kon ([3]; Table 1, pH 5.5, 37° C.): 28.00 10^5 × M^-1 s^-1

C[C@]12CCC(=O)N[C@@H]1CC[C@@H]1[C@@H]2CC[C@]2(C)[C@@H](C(=O)C3CCCCC3)CC[C@@H]12 [Compound 6]
Ki [3, 9]: 0.3 nM

COC(=O)[C@H]1CC[C@H]2[C@@H]3CC[C@H]4N(C)C(=O)C=C[C@]4(C)[C@H]3CC[C@]12C [Compound 4]
Ki [3]: 960 nM
